Experimental data as given in US20090061515A1, “Methods of inhibiting or suppressing cellular proliferation” (priority 2007, published 2009).

Key:
Format in all cases: cell-based
[1] = system: Normal Human Dermal Fibroblast (NHDF) cells; assay: CytoTox 96 LDH release cytotoxicity assay (Example 3)
Description: The assay used was a non-radioactive cytotoxicity assay available under the trade designation CytoTox 96 from Promega Corporation (Madison, Wis.), which was designed to determine the cytotoxicity of a substance by quantitatively measuring the presence of lactate dehydrogenase (LDH) in cell culture supernatant. The enzymatic assay utilizes the LDH released in the supernatant in the conversion of a tetrazolium salt substrate into a red formazan product. This resulting product is measured using a standard 96 well plate reader where the absorbance recorded at 490 nanometers is directly proportional to the number of lysed cells. The Normal Human Dermal Fibroblasts were available from Clonetics Corporation (San Diego, Calif.).
(§1) The 5,6-dihydroxy-hexan-2-one (1.2 grams) was dissolved in 12 ml of phosphate buffered saline and was filter sterilized through a 0.22 micrometer syringe filter prior to use. The 5,6-dihydroxy-hexan-2-one was further diluted to 10^−1, 10^−2, 10^−3, 10^−4, 10^−5, and 10^−6 using serial dilutions for the evaluation.
NHDF were seeded at 45,000 cells/well in 24 well plate(s). Cells were grown for 72 hours, 48 hours of which was done in the presence of the test chemicals. 24 hours after seeding, 5,6-dihydroxy-hexan-2-one was added to the cell culture plates (2 ml/well). […] Samples were analyzed on the above-described assay as provided in the instructions for use of the assay.

[2] = system: human umbilical vein endothelial cells (HUVEC); assay: Cell migration after 48 hours exposure, HUVEC (Example 6); details: 10 mg/ml and 1 mg/ml
Description: (§2) Evaluation of the effects of 5,6-dihydroxy-hexan-2-one on human umbilical vein endothelial cells (HUVEC) and Glioblastoma/Astrocytoma cells U87 cellular proliferation and migration during 120 hours following 48 hour exposure to 5,6-dihydroxy-hexan-2-one at concentration of 10 mg/ml, 1 mg/ml, 100 micrograms/ml. Controls were cells not exposed to the agent.
(§3) In order to further explore the effects of this compound, experiments to evaluate the dose-effect response on the antiproliferative effect and on cell migration were conducted on two cell lines, human umbilical vein endothelial cells (HUVEC) and Glioblastoma/Astrocytoma cells (U87), over 120 hours after 48 hours of exposure to the compound.
FIGS. 23(a)-(l) are pictures that visually display the migration over time of human umbilical vein endothelial cells (HUVEC) after 48 hours exposure to various concentrations of 5,6-dihydroxy-hexan-2-one. Specifically, FIGS. 23(a)-(d) represent the control, FIGS. 23(e)-(h) represent 10 mg/ml, and FIGS. 23(i)-(l) represent 1 mg/ml 5,6-dihydroxy-hexan-2-one. FIGS. 23(a), (e), and (i) represent migration after 2 hours; FIGS. 23(b), (f), and (j) represent migration after 14 hours; FIGS. 23(c), (g), and (k) represent migration after 20 hours; and FIGS. […], (h), and (l) represent migration after 48 hours.

[3] = system: human Glioblastoma/Astrocytoma U87 cells; assay: CyQuant cell proliferation after 48 hour exposure, U87 (Example 6); details: for cell proliferation: 48 hour exposure
Description: as §2, §3
A cell proliferation assay available under the trade designation CyQuant from Invitrogen Corporation (Carlsbad, Calif.) determines the density of cells in culture by using a green fluorescent dye which fluoresces when bound to cellular nucleic acids.

[4] = system: Normal Human Dermal Fibroblast (NHDF) cells; assay: Cell count and visual morphology of NHDF after exposure and after re-plating (Example 3); details: for cell count: NHDF seeded at 45,000 cells/well, 48 hours of exposure; for growth after re-plating without compound: then 96 hours in fresh media without compound
Description: as §1
NHDF were seeded at 45,000 cells/well in 24 well plate(s). Cells were grown for 72 hours, 48 hours of which was done in the presence of the test chemicals. 24 hours after seeding, 5,6-dihydroxy-hexan-2-one was added to the cell culture plates (2 ml/well). Assay plates were pulled for analysis at 24 and 48 hours after addition of the chemical compound. Samples were analyzed on the above-described assay as provided in the instructions for use of the assay.
Cell counts were taken after the cells had been plated for 72 hours and exposed to 5,6-dihydroxy-hexan-2-one for 48 hours.
After 48 hours of exposure to 5,6-dihydroxy-hexan-2-one, a cell count was taken on the 10^−1 concentration group and the 10^−6 concentration group. The 10^−1 cell count was 45,000 cells/well and the 10^−6 cell count was 275,000 cells/well. The count for the 10^−1 concentration group yielded the same number of cells that were previously seeded, while the 10^−6 concentration group had continued to grow rapidly without problems. Cells from these two different groups were then plated out at the same density as before, but without exposure to 5,6-dihydroxy-hexan-2-one and in fresh media for 96 hours. Visual representations of these two groups can be seen in FIG. 5 (10^−1, exposed to 5,6-dihydroxy-hexan-2-one for 48 hours, continued the culture for an additional 96 hours without 5,6-dihydroxy-hexan-2-one) and FIG. 6 (10^−6, exposed to 5,6-dihydroxy-hexan-2-one for 48 hours, continued the culture for an additional 96 hours without 5,6-dihydroxy-hexan-2-one).

[5] = system: coronary artery smooth muscle cells (CASMC); assay: Cell proliferation and viability assays (CyQuant, CellTiter-Glo, CellTiter 96), CASMC (Example 5); details: 48 hours
Source text: Multiple assays were used to test a variety of cellular properties expressed after exposure of different cells types to 5,6-dihydroxy-hexan-2-one. A cell proliferation assay available under the trade designation CyQuant from Invitrogen Corporation (Carlsbad, Calif.) determines the density of cells in culture by using a green fluorescent dye which fluoresces when bound to cellular nucleic acids. The amount of nucleic acid present is proportional to the amount of living cells in culture. […]
The amount of ATP present is proportional to the measured amount of a luminescent signal and therefore the amount of viable cells. […] The absorbance read is proportional to the amount of metabolic activity present in the cells.
Normal human dermal fibroblast (NHDF) cells and coronary artery smooth muscle cells (CASMC) in culture were exposed to 5,6-dihydroxy-hexan-2-one at concentrations of 10 microgram/ml, 1 mg/ml, and 10 mg/ml, for 48 hours, after which the cell culture wells were analyzed for cell proliferation and viability. […] FIG. 17 is a graphical representation of fibroblast cell numbers measured after 48 hours exposure to different concentrations of 5,6-dihydroxy-hexan-2-one. FIG. 18 is a graphical representation of smooth muscle cell numbers measured after 48 hours exposure to different concentrations of 5,6-dihydroxy-hexan-2-one. […]

CC(=O)CCC(O)CO (centres unmarked) [5,6-dihydroxy-hexan-2-one] was tested, and the “cytotoxicity (LDH release), in words” value ([1]; 10^-1 concentration) was “no significant cytotoxicity”, the “cytotoxicity (LDH release), in words” value ([1]; various concentrations, 48 hours) was “no increase in cytotoxicity” and the cell migration [2] was “did not shown differences”. For the same molecule, the cell proliferation ([3]; U87, 10 mg/ml) was “antiproliferative effects”, the “time after withdrawal at which inhibitory effect was still observed” value ([3]; U87, 10 mg/ml, after 48 hour exposure) was at least 120 h and the cell proliferation ([3]; U87, lowest concentration evaluated (100 micrograms/ml)) was “no antiproliferative effects”. The cell count ([4]; 10^-1 concentration) was 45,000 cells/well, the cell count ([4]; 10^-6 concentration) was 275,000 cells/well and the “growth after re-plating without compound” value ([4]; NHDF, 10^-1, exposed 48 hours) was “impaired ability for cell proliferation”. For the same molecule, the visual morphological study ([4]; NHDF, 10^-1 concentration, 24 and 48 hours) was “signs of cell distress”, the “visual physical cellular response” value ([4]; NHDF, 10^-1 concentration, 48 hours) was “Fewer human dermal fibroblasts cells were observed” and the “growth after re-plating without compound” value ([4]; NHDF, 10^-6, exposed 48 hours) was “continued to grow without problems”. The cell proliferation ([5]; 10 mg/ml) was “inhibition of cell proliferation” and the cell proliferation ([5]; other concentrations (10 microgram/ml, 1 mg/ml)) was “did not show this effect”.
